Legend:
Type in all cases: cell-based, Hepatitis C virus (HCV)
[1] = tested on: HCVcc JFH-1; test: Chronic HCVcc infection in growing Huh7 cells, long-term treatment, RT-qPCR (FIG. 2)
Method: Cultures of growing Huh7 cells were inoculated with HCVcc JFH-1 at an MOT of 0.01 FFU/cell. Infected cultures were maintained for an additional 10 days to allow HCV RNA to reach steady-state levels. FIG. 2A, Cultures were mock treated, treated with ezetimibe alone (30 μM), IFN-α (100 U/ml) alone, or ezetimibe (30 μM) plus IFN-α (100 U/ml) in combination. Treatments were maintained as cultures were passaged. FIG. 2B, After 70 days IFN-α or combination ezetimibe plus IFN-α treatment, treatment was either continued (open shapes) or discontinued (filled shapes). […] Results are graphed as means±s.e.m. for triplicate samples. The data presented are representative of two independent experiments.
For experiments in growing cells, Huh7 cells seeded at 1×10^6 cells in a T75 cell culture flask (Corning) were infected with JFH-1 HCVcc at a MOI of 0.01 FFU/cell and subsequently cultured for 10 days to allow HCV RNA to reach steady-state levels. On day 10 post-infection, cells were split 1:4 and re-plated into T25 culture flasks (Corning). Twenty four hours post seeding, individual flasks were mock-treated with cDMEM or treated with cDMEM containing IFN-α (100 U/ml), ezetimibe (30 μM) or a combination of both IFN-α (100 U/ml) and ezetimibe (30 μM). Throughout the course of the experiment, fresh media with treatments was replenished every two days and cells were trypsinized just before reaching confluence and re-plated at a dilution of 1:3 to maintain active cell growth. […]
(§1) Total cellular RNA was purified using an ABI PRISM™ 6100 Nucleic Acid PrepStation (Applied Biosystems), as per the manufacturer's instructions. […] HCV JFH-1 and human GAPDH RNA transcript levels were determined relative to a standard curve derived from serial dilutions of plasmid containing the JFH-1 HCV cDNA or the human GAPDH coding sequence, respectively. […]
To confirm HCV clearance, drug treatments were subsequently discontinued on day 70 and HCV RNA levels were monitored for an additional 30 days.

[2] = tested on: HCV-JFH-1; test: Chronic HCV-JFH-1 infection of Huh7-1 cells, inhibitor combinations, RT-qPCR 24-96 h (FIG. 3-5); conditions: for reduction of HCV levels (FIG. 3): PI 200 nM; for reduction of HCV levels (FIG. 3) / decrease in intracellular HCV load (FIG. 4B): IFN-α 100 U/ml; for decrease in intracellular HCV load (FIG. 4B): ferristatin 50 μM
Method: RT-qPCR analysis of intracellular HCV RNA levels in Huh7 cultures mock-treated, treated with ezetimibe (30 μM), PI (200 nM), IFN-α (100 U/ml), or indicated combinations thereof (n=3). Data presented are representative of multiple independent experiments.
FIG. 4A, Chronically infected Huh7-1 cell cultures (n=3) treated with ezetimibe (E), naringenin (N), interferon α (I), or combinations thereof, were harvested at 24, 48, 72 or 96 hours post-treatment, intracellular HCV levels were quantified by RT-qPCR, and are presented as HCV copies/μg RNA. FIG. 4B, Chronically infected Huh7-1 cell cultures (n=3) treated with ezetimibe (E), ferristatin (T), interferon α (I), or combinations thereof, were harvested at 24, 48, 72 or 96 hours post-treatment, intracellular HCV levels were quantified by RT-qPCR, and are presented as HCV copies/μg RNA.
Shown are the results of RT-qPCR analysis of intracellular HCV RNA levels in Huh7 cultures mock-treated, treated with ezetimibe (30 μM), polymerase inhibitor, RG7128 (1 μM), or a combination thereof (n=3).
For experiments analyzing the activity of ezetimibe in combination with a protease inhibitor, Huh7-1 cells were infected with HCV-JFH-1 and allowed to reach steady state levels of infection. The HCV-infected cells were seeded in a 96-well plate and treated with the following: medium alone, 30 μM ezetimibe, 200 nM ITMN5537, 100 μ/ml IFN-α, and combinations of the above drugs at the specified concentrations. Medium and drugs were replaced every 24 hours. Triplicate wells were harvested at 24, 48, 72 or 96 hours post-treatment, in 200 μl/well of 1×ABI lysis buffer and stored at −80° C. until RNA extraction.
Therefore, the therapeutic potential of an IFN-free antiviral cocktail was also investigated, using ezetimibe in combination with other direct acting inhibitors of HCV amplification, specifically an inhibitor of the HCV NS3/4A protease (ITMN 5537; Intermune, Brisbane, Calif.). Huh7-1 cells were infected with HCV-JFH-1 and allowed to reach steady state levels of infection. Cells were monotreated with protease inhibitor (PI) or ezetimibe or IFN alone or treated with combinations of PI+ezetimibe or PI+IFN or IFN+ezetimibe or a combination of all three inhibitors. Samples were harvested at 24, 48, 72 or 96 hours post-treatment, the intracellular RNA was extracted and RT-qPCR performed to quantify HCV copies.
Thus, parallel cultures of chronically infected Huh7-1 cells were established and subsequently treated with ezetimibe, naringenin or IFN-α, either alone or in combination. Treatments were replenished every 24 hours. Triplicate cultures of each treatment condition were harvested at 24, 48, 72 or 96 hours post-treatment and intracellular HCV levels were quantified by RT-qPCR (FIG. 4A). […] Thus, no evidence of synergy was observed when IFN-α was combined with an egress inhibitor that only blocks cell-free spread.
As an alternative method of determining the therapeutic importance of inhibiting HCV cell-to-cell spread, an inhibitor to TfR1 was used. TfR1 has also been identified as another host cell factor that is involved in cell-free entry of HCV into cells, but is not required for cell-to-cell-mediated HCV entry. Thus, unlike ezetimibe which inhibits both cell-free and cell-to-cell HCV spread, the TfR1 inhibitor, ferristatin, only blocks cell-free virus spread. Again, chronically infected Huh7-1 cell cultures were established and treated with ezetimibe (30 μM), ferristatin (50 μM), or IFN-α (100 U/ml), either alone or in combination and treatments were replenished every 24 hours. Intracellular HCV copies were quantified from triplicate cultures by RT-qPCR at 24, 48, 72 or 96 hours post-treatment (FIG. 4B).
Huh7-1 cells were infected with HCV-JFH-1 and allowed to reach steady state levels of infection. Cells were monotreated with HCV polymerase inhibitor RG7128 (1 μM) or ezetimibe (30 μM) alone or treated with a combination of RG7128 and ezetimibe. […]

[3] = tested on: HCVcc; test: HCV foci reduction assay, acute HCVcc infection of Huh7 cells; conditions: added pre-, co- or post-infection
[4] = tested on: HCV genotype 1b subgenomic replicon; test: HCV sg1b replicon RNA replication in Huh7 cells, RT-qPCR; conditions: 72 hours post-treatment
[5] = tested on: HCV genotype 2a subgenomic replicon; test: HCV sg2a replicon RNA replication in Huh7 cells, RT-qPCR; conditions: 72 hours post-treatment
Description: Huh7 cells, also known as Huh7/scr cells, are well-known in the art (Zhong, et al. (2005) Proc. Natl. Acad. Sci. USA 102, 9294-99; Gastaminza, et al. (2006) J. Virol. 80:11074-81; Zhong, et al. (2006) J. Virol. 80:11082-93; Sainz et al. (2009) PLoS ONE 4:e6561). […] The HCV sg2a replicon was established as previously described (Uprichard, et al. (2006) Virol. J. 3:89). Briefly the HCV genotype 2a subgenomic replicon RNA (psgJFH1; Kato, et al. (2003) Gastroenterology 125:1808-17) was XbaI linearized, in vitro transcribed using […] T7 (Ambion, Austin, Tex.) and transfected into cells using a modified electroporation protocol (Krieger, et al. (2001) J. Virol. 75(10):4614-24). All cells were cultured in complete Dulbecco's modified Eagle's medium (cDMEM) (Hyclone, Logan, Utah) supplemented with 10% fetal bovine serum (FBS) (Hyclone), 100 units/ml penicillin, […] streptomycin, and 2 mM L-glutamine (Gibco Invitrogen, Carlsbad, Calif.) and 500 μg/ml geneticin ((Invitrogen) for HCV replicon cells only).
as §1

IFN-α
decrease in intracellular HCV RNA levels ([1]; by day 32 post-treatment vs mock, IFN-α 100 U/ml, ezetimibe 30 μM): ~2 logs
rebound in HCV RNA after treatment discontinued ([1]; discontinued on day 70, monitored 30 days): immediate rebound
reduction of HCV levels (FIG. 3) ([2]; ezetimibe 30 μM): a log
decrease in intracellular HCV load (FIG. 4B) ([2]; ezetimibe 30 μM): a log decrease
reduction of HCV copies (FIG. 4A) ([2]; ezetimibe, naringenin, IFN-α alone or in combination): a log decrease

CC(C)(C)OC(=O)N[C@H]1CCCCC/C=C\[C@@H]2C[C@@]2(C(=O)NS(=O)(=O)C2(C)CC2)NC(=O)[C@@H]2C[C@@H](OC(=O)N3Cc4cccc(F)c4C3)CN2C1=O [PI]
reduction of HCV levels (FIG. 3) ([2]; ezetimibe 30 μM): less than a log

CC[C@H](C)C(=O)O[C@H]1C[C@@H](C)C=C2C=C[C@H](C)[C@H](CC[C@@H]3C[C@@H](O)CC(=O)O3)[C@H]21 [Lovastatin]
inhibition of HCVcc foci formation [3]: had no affect
reduction of sg1b RNA levels [4]: 22 fold
sg2a HCV RNA levels [5]: had no affect

CC(C)C(=O)OC[C@H]1O[C@@H](n2ccc(N)nc2=O)[C@](C)(F)[C@@H]1OC(=O)C(C)C [RG7128]
reduction of HCV levels (FIG. 5) ([2]; RG7128 1 μM, ezetimibe 30 μM, normalized to Mock): less than a log

Cc1[n-]n(-c2ccc(S(=O)(=O)O)cc2)c(=O)c1N=Nc1ccc(-c2ccc(N=Nc3ccc4c(S(=O)(=O)O)cc(S(=O)(=O)O)c(N)c4c3[O-])c([O-])c2)cc1[O-].[Cu+2].[Cu+2] [ferristatin]
decrease in intracellular HCV load (FIG. 4B) ([2]; ezetimibe 30 μM): neither ezetimibe nor ferristatin alone reduced intracellular HCV load

Source: patent US9034863B2, “Compositions and methods for inhibiting entry of a hepatic virus” (The Board of Trustees of the University of Illinois, priority 2008, dated 2015)
